Experimental findings from patent US20250154141A1 (University of Florida Research Foundation, Incorporated, priority 2021, published 2025) are described below.

One experiment deals with RS4; 11. As to the kind of experiment: Cell viability assay (MTS) in RS4; 11 cells. Type of experiment: cell-based. The following applies: Homo sapiens, RS4-11; Table 2; 48 hr; MTS; read-out: Anti-Cancer Activity IC50 (48 hr) RS4; 11. On the procedure:
(§1) Acute lymphoblastic leukemia cells (MOLT-4 and RS4; 11) were incubated with increasing concentrations of Bcl-xL degraders for 48 h. Cell viability was measured by tetrazolium-based MTS assay.

The test system of another experiment is MOLT-4. As to the kind of experiment: Cell viability assay (MTS) in MOLT-4 cells. The class given is cell-based. The conditions noted are these: Homo sapiens, MOLT-4; Table 2; 48 hr; MTS; read-out: Anti-Cancer Activity IC50 (48 hr) MOLT-4. How it is done: as §1

Each structure is given as a SMILES string.

The term IC50 denotes the midpoint of a concentration-inhibition curve. `Cc1ncsc1-c1ccc([C@H](C)NC(=O)[C@@H]2C[C@@H](O)CN2C(=O)[C@@H](NC(=O)CNC(=O)c2ccc(N3CCN(CC4(C)CCC(c5ccc(Cl)cc5)=C(CN5CCN(c6ccc(C(=O)NS(=O)(=O)c7ccc(N[C@H](CCN8CCOCC8)CSc8ccccc8)c(S(=O)(=O)C(F)(F)F)c7)cc6)CC5)C4)CC3)nc2)C(C)(C)C)cc1` (stereo partly shown) [Compound 1]: the IC50 fell in the range of 100 to 500 nM with RS4; 11 and 20 to 100 nM in the experiment with MOLT-4.
Take `Cc1ncsc1-c1ccc([C@H](C)NC(=O)[C@@H]2C[C@@H](O)CN2C(=O)[C@@H](NC(=O)CCCNC(=O)c2ccc(N3CCN(CC4(C)CCC(c5ccc(Cl)cc5)=C(CN5CCN(c6ccc(C(=O)NS(=O)(=O)c7ccc(N[C@H](CCN8CCOCC8)CSc8ccccc8)c(S(=O)(=O)C(F)(F)F)c7)cc6)CC5)C4)CC3)nc2)C(C)(C)C)cc1` (stereo partly shown) [Compound 2]: the IC50 in the experiment with RS4; 11 and in the experiment with MOLT-4 was 20 to 100 nM in each case.
`Cc1ncsc1-c1ccc([C@H](C)NC(=O)[C@@H]2C[C@@H](O)CN2C(=O)[C@@H](NC(=O)CCCNC(=O)c2ccc(N3CCN(CC4(C)CCC(c5ccc(Cl)cc5)=C(CN5CCN(c6ccc(C(=O)NS(=O)(=O)c7ccc(N[C@H](CCN8CCOCC8)CSc8ccccc8)c(S(=O)(=O)C(F)(F)F)c7)cc6)CC5)C4)CC3)cn2)C(C)(C)C)cc1` (stereo partly shown) [Compound 4]: the IC50 in the experiment with RS4; 11 and with MOLT-4 was 20 to 100 nM throughout.
For the compound `Cc1ncsc1-c1ccc([C@H](C)NC(=O)[C@@H]2C[C@@H](O)CN2C(=O)[C@@H](NC(=O)CCCCCNC(=O)c2ccc(N3CCN(CC4(C)CCC(c5ccc(Cl)cc5)=C(CN5CCN(c6ccc(C(=O)NS(=O)(=O)c7ccc(N[C@H](CCN8CCOCC8)CSc8ccccc8)c(S(=O)(=O)C(F)(F)F)c7)cc6)CC5)C4)CC3)cn2)C(C)(C)C)cc1` (stereo partly shown) [Compound 5], the IC50 in the experiment with RS4; 11 was 100 to 500 nM; in the experiment on MOLT-4 it was 20 to 100 nM.
Consider `Cc1ncsc1-c1ccc([C@H](C)NC(=O)[C@@H]2C[C@@H](O)CN2C(=O)[C@@H](NC(=O)CCCCCCCNC(=O)c2ccc(N3CCN(CC4(C)CCC(c5ccc(Cl)cc5)=C(CN5CCN(c6ccc(C(=O)NS(=O)(=O)c7ccc(N[C@H](CCN8CCOCC8)CSc8ccccc8)c(S(=O)(=O)C(F)(F)F)c7)cc6)CC5)C4)CC3)cn2)C(C)(C)C)cc1` (stereo partly shown) [Compound 6], for which the values for the IC50 in the experiment on RS4; 11 and in the experiment on MOLT-4 were 100 to 500 nM and 500 to 10000 nM, respectively.
`Cc1ncsc1-c1ccc([C@H](C)NC(=O)[C@@H]2C[C@@H](O)CN2C(=O)[C@@H](NC(=O)CNC(=O)c2ccc(N3CCN(CCN(C)CC4(C)CCC(c5ccc(Cl)cc5)=C(CN5CCN(c6ccc(C(=O)NS(=O)(=O)c7ccc(N[C@H](CCN8CCOCC8)CSc8ccccc8)c(S(=O)(=O)C(F)(F)F)c7)cc6)CC5)C4)CC3)nc2)C(C)(C)C)cc1` (stereo partly shown) [Compound 7]: the IC50 in the experiment with RS4; 11 lay in the range of 20 to 100 nM; in the experiment with MOLT-4 it was 100 to 500 nM.
`Cc1ncsc1-c1ccc([C@H](C)NC(=O)[C@@H]2C[C@@H](O)CN2C(=O)[C@@H](NC(=O)CCCNC(=O)c2ccc(N3CCN(CCN(C)CC4(C)CCC(c5ccc(Cl)cc5)=C(CN5CCN(c6ccc(C(=O)NS(=O)(=O)c7ccc(N[C@H](CCN8CCOCC8)CSc8ccccc8)c(S(=O)(=O)C(F)(F)F)c7)cc6)CC5)C4)CC3)nc2)C(C)(C)C)cc1` (stereo partly shown) [Compound 8]: the IC50 with RS4; 11 and in the experiment on MOLT-4 was 20 to 100 nM in each case.
With `Cc1ncsc1-c1ccc([C@H](C)NC(=O)[C@@H]2C[C@@H](O)CN2C(=O)[C@@H](NC(=O)CCCCCNC(=O)c2ccc(N3CCN(CCN(C)CC4(C)CCC(c5ccc(Cl)cc5)=C(CN5CCN(c6ccc(C(=O)NS(=O)(=O)c7ccc(N[C@H](CCN8CCOCC8)CSc8ccccc8)c(S(=O)(=O)C(F)(F)F)c7)cc6)CC5)C4)CC3)nc2)C(C)(C)C)cc1` (stereo partly shown) [Compound 9], the IC50 in the experiment with RS4; 11 and with MOLT-4 was 20 to 100 nM throughout.
